Experiments:
[1] = molecular target: MMP-9 (Homo sapiens, UniProt P14780); details: cited from earlier work
[2] = tested on: LmnaG609G/G609G mice; experiment: In vivo treatment of progeria mice with BB-94; parameters: species or system mouse
Method: In vivo studies. 16 Lmna^G609G/G609G mice (male and female) were used. […] IP injections were used to administrate 30 mg/Kg/day of BB-94 in 3 mg/ml in PBS containing 0.01% Tween 80. The treatment was applied 5 times per week during 6 weeks (from week 5 to week 10). […] At the end of week 10 the mice were sacrificed and the selected parameters were evaluated.
Gene Expression Profiling using Fluidigm. Small parts of mice aortas were frozen to be analyzed. These parts were lysated and homogenized using a MagNA instrument and MagNA Lyser Green Beads (with 5 mm (diameter) stainless steel beads). Total RNA were then isolated and quantified. DELTAgene assays (FlexSix—Fluidigm) were designed for […] transcripts. The pre-amplification process was performed for 14 cycles in order to obtain sensitivity down to a single cDNA molecule. The oligos were synthesized by Sigma and dissolved at a concentration of 100 μM in water. For each assay a Primer Pair Mix was prepared containing 50 μM Forward Primer and 50 μM Reverse Primer. In order to prepare 10× Pre-amplification Primer Mix (500 nM each primer), 10 μL of each of the 96 Primer Pair Mixes (50 μM each primer) was mixed with […] buffer consisting of 10 mM Tris-HCl, pH 8.0; 0.1 mM EDTA; 0.25% Tween-20. In order to prepare 10× Assay (5 μM each primer) each Primer Pair Mix was diluted by mixing 10 μL Primer Pair Mix (50 μM each primer) with 90 μL buffer consisting of 10 mM Tris-HCl, pH 8.0; 0.1 mM EDTA; 0.25% Tween-20. A pre-mix containing cDNA and primers was done and treatment with exonuclease I was performed to remove non-hybridized primers. The Fluidigm® FLEXsix™ Gene expression IFC was used with EvaGreen chemistry. After a prime of the chip, a 10× assay mix and sample mix were prepared and pipetted into the inlets. The chip was loaded and data was collected using the BioMark HD™. Data was analyzed using Fluidigm® Real Time PCR Analysis v2.1 software.
So far no therapy has been developed to target specifically SMC loss. Most of the compounds identified so far in pre-clinical tests to treat progeria have been focused in the reduction of progerin quantities, by either reducing its production or increasing its degradation, in the reduction of progerin toxicity by targeting its aberrant prenylation, or identifying compounds capable of restoring pathological phenotypes downstream of progerin accumulation. Therefore we asked whether the inhibition of MMP13 in LmnaG609G/G609G mice could retard SMC loss. […] LmnaG609G/G609G mice (n=8 for treatment group and control group; age: 5 weeks) were IP injected 5 times a week (30 mg/Kg/day; 3 mg/mL in PBS). […] At this time point we evaluated SMC loss in the aortic arch.

[3] = tested on: HGPS-iPSC SMCs; experiment: Cell detachment under arterial flow in microfluidic system (loss of function studies); assay type: cell-based, human; details: for HGPS-iPSC SMC detachment: both clones, arterial flow 20 dyne/cm^2, up to 12 days, MMP13 inhibitor 8 nM, BB-94 20 nM
Method: After 4 h, a confluent cell layer was formed, which was then perfused with SmGM-2 medium at physiological flow rate (20 dyne/cm^2). Unless specified, all tests were performed at day 0 and after 4 days on flow culture conditions. Cell number and cell clumps were determined on slides stained with DAPI (20×) and normalized by image area (0.3524 mm^2). Cell clumps areas were evaluated by Image J software.
In case of calcification inhibition studies, cells were treated with SmGM-2 medium containing sodium pyrophosphate (0.9 mM, Sigma), and in case of farnesyltrasferase inhibitor studies, cells were treated with SmGM-2 medium containing Tipifarnib (1 μM) or Lonafarnib (20 μM, Absouce Diagnostics). In MMP, calcification and farnesyltransferase inhibition studies, cells were perfused with medium containing the drug at a flow rate of 20 dyne/cm^2. Medium was changed every 7 days. Cell number and viability (Presto Blue assay) was monitored overtime. In case of MMP-13 inhibition studies, MMP activity was assessed at day 4, and the percentage of progerin positive cells and the expression of phosphatase alkaline were evaluated at day 7.
The complexation of siRNAs with lipofectamine was allowed to proceed for 40 min at room temperature. […] The culture media was changed after 72 h.

[4] = tested on: HOZ mSMCs; experiment: Detachment of progeria mouse SMCs under flow shear stress; assay type: cell-based; details: flow conditions, media supplemented with inhibitor
Text: Mice. Male^LmnaG609G/G609G, and wild-type were used (Osorio F G, Navarro C L, Cadinanos J, Lopez-Mejia I C, Quiros P M, Bartoli C, Rivera J, Tazi J, Guzman G, Varela I, Depetris D, de Carlos F, Cobo J, Andres V, De Sandre-Giovannoli A, Freije J M, Levy N, Lopez-Otin C. Splicing-directed therapy in a new mouse model of human accelerated aging. Science translational medicine. 2011;3:106ra107). Animal studies were approved by the local <<comité d'éthique pour l'expérimentation animale>> (Marseille Animal Care Commitee, Protocol n° 96-21122012) and conformed to the Directive 2010/63/EU of the European parliament regarding the protection of animals used for experimental and other scientific purposes. Mouse vSMCs (mSMC) were prepared from thoracic aortas of 6 or 18 week-old mice. Briefly, after fat tissue removal around aortic region, aorta was dissected from its origin to the proximity of the diaphragm. Aortas from two mice were put into HBSS 1×, on ice then rinse once in HBSS. Aorta were digested 10 minutes at 37° C. in enzyme solution freshly prepared the day of isolation (Collagenase 1 mg/ml, Soybean Trypsin inhibitor 1 mg/ml, elastase 0.744 units/ml—Worthington biochemical—, penicillin/streptomycin 1%, HBSS 1×). […] The loss of mSMC during time was assessed by the percentage of occupied area.
We also analyzed the effect of MMP13 and BB94 inhibition in HOZ mSMCs. […]

[5] = molecular target: T1, MMP-7 (Homo sapiens, UniProt P09237); details: cited from earlier work
T1 sequence (P09237 95-267): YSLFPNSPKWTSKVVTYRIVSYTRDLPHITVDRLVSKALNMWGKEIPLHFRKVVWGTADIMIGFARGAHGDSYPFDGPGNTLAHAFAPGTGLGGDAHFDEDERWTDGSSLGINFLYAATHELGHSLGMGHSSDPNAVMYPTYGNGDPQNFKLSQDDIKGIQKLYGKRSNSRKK

[6] = tested on: HGPS-iPSC SMCs; experiment: Response to farnesyltransferase inhibitor: prelamin A and nuclear morphology by immunofluorescence; assay type: cell-based, human; details: one dose 1 μM, after 48 h
Method: To evaluate whether HGPS-iPSC SMCs could respond to farnesyltransferase inhibitors, as shown for other progeria cell models, cells were treated with one dose of Tipifarnib (1 μM) and after 48 h cells were characterized for the expression of prelamin A. As expected, HGPS-iPSC SMCs accumulate nuclear prelamin A (approximately 95% of the cells), as shown by immunofluorescence (FIG. 12).
Immunofluorescence analysis—In an embodiment, cells were washed with PBS, fixed with 4% paraformaldehyde (Electron Microscopy Sciences) for 15 min at room temperature and washed again with PBS. […] Binding of primary antibodies to specific cells was detected with anti-mouse IgG Cy3 (Sigma) or anti-rabbit IgG Cy3 (JacksonImmunoResearch). Cell nuclei were stained with 4′, 6′-diamidino-2-phenylindole (DAPI) (Sigma) and the slides examined with a regular (Zeiss) or high-content fluorescence microscope (IN Cell 2200, GE Healthcare). Image) software was used to quantify the overall intensity of each image, which was then normalized for cell number.

MMP-9, sequence (P14780 94-707, species assumed): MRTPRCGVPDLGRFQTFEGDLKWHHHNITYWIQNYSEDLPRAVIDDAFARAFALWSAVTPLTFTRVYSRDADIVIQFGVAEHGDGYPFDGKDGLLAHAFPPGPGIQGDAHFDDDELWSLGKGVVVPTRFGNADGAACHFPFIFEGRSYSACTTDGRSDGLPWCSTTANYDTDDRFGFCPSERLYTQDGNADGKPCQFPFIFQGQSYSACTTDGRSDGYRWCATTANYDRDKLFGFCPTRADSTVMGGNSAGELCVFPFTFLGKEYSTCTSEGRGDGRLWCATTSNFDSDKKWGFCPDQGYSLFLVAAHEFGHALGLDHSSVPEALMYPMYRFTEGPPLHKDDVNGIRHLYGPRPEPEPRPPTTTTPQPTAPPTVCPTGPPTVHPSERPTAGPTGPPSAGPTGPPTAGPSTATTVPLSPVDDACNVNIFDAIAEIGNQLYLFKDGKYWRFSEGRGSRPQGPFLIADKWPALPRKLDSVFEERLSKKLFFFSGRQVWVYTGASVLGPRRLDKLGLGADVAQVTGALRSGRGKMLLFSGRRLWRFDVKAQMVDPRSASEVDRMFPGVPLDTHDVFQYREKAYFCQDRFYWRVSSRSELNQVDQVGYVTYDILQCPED

## CNC(=O)[C@H](Cc1ccccc1)NC(=O)[C@H](CC(C)C)[C@H](CSc1cccs1)C(=O)NO [Batimastat, (2R,3S)-N4-Hydroxy-2-isobutyl-N1-[(2S)-1-(methylamino)-1-oxo-3-phenyl-2-propanyl]-3-[(2-thienylsulfanyl)methyl]succinamide]
[1]
  IC50: ≤ 20 nM
[2]; 3 mg/mL in PBS, IP injection
  solubility of the compound: low solubility
[2]; IP 30 mg/Kg/day, 5 times per week, 6 weeks, cell nuclei counting and qRT-PCR, versus untreated animals
  number of SMCs in aortic arch: higher number of SMCs than untreated animals
[2]; IP 30 mg/Kg/day, 6 weeks
  progerin in cells isolated from aortic arch: No evidence of decrease of progerin
[2]; IP 30 mg/Kg/day, treatment reduced from 10 to 6 weeks
  intra-abdominal accumulation (precipitate): intra-abdominal massive accumulation
[3]
  HGPS-iPSC SMC detachment: decreased significantly the detachment
[4]
  detachment of HOZ mSMCs: significantly delayed
[5]
  IC50: ≤ 20 nM

## NC(=O)N1CCC(CC(=O)N2CCC([C@H]3c4ncc(Br)cc4CCc4cc(Cl)cc(Br)c43)CC2)CC1 [Lonafarnib]
[3]; HGPS-iPSC SMC clone 1, arterial flow, Tipifarnib 1 μM, Lonafarnib 20 μM
  cellular detachment: able to decrease cellular detachment

## Cc1cc(CNC(=O)c2cc(C(=O)NCc3ccc(F)c(C)c3)ncn2)ccc1F [MMP-13 inhibitor, pyrimidine-4,6-dicarboxylic acid, bis-(4-fluoro-3-methyl-benzylamide)]
[3]
  HGPS-iPSC SMC detachment: decreased significantly the detachment
[4]
  detachment of HOZ mSMCs: significantly delayed

## Cn1cncc1[C@@](N)(c1ccc(Cl)cc1)c1ccc2c(c1)c(-c1cccc(Cl)c1)cc(=O)n2C [Tipifarnib]
[6]
  cells accumulating nuclear prelamin A: approximately 95 % of the cells

## O=P([O-])([O-])OP(=O)([O-])[O-].[Na+].[Na+].[Na+].[Na+] [sodium pyrophosphate]
[3]; calcification inhibition, sodium pyrophosphate 0.9 mM, arterial flow
  SMC detachment: significant decreased in SMC detachment

From US20180000817A1, “TREATMENT OF HUTCHINSON-GILFORD PROGERIA SYNDROME AND DISEASES RELATED TO VASCULAR AGEING” (BIOCANT - ASSOCIAÇÃO DE TRANSFERÊNCIA DE TECNOLOGIA, priority 2015, published 2018)
